Assay [1] addresses T1, LCK tyrosine kinase (Homo sapiens, UniProt P06239, C224D/P223M).
T1 construct: starting from amino acid 223 to the end of the protein at amino acid 509; made in house; host or cells: insect cells
The assay is described as follows: Inhibition of phosphorylated LCK tyrosine kinase activity. The format is biochemical. The note with it: read-out: LCK % Inhib. at 1 μM. The method, then:
Inhibition of Phosphorylated FGF Receptor and LCK Tyrosine Kinase Activity
Cloning, expression and purification of the cytosolic domain of FGFR1 tyrosine kinase (amino acids 456–766) containing three amino acid substitutions (L457V, C488A, and C584S) were conducted as previously described (Mohammadi, M., Schlessinger, J., & Hubbard, S. R. (1996) Cell 86, 577–587). This domain was expressed in Sf9 insect cells using a baculovirus expression vector, and protein was purified using conventional techniques. The LCK tyrosine kinase was expressed in insect cells as an N-terminal deletion starting from amino acid 223 to the end of the protein at amino acid 509. The N-terminus of the protein also had two amino acid substitutions, P223M and C 224D. Kinases were purified using conventional chromatographic methods.
Tyrosine kinase activity was measured using a coupled, continuous spectrophotometric assay, in which production of phosphorylated poly(Glu, Tyr; 4:1) substrate and ADP is coupled to the pyruvate kinase-catalyzed transfer of a phosphate from phosphoenolpyruvate to ADP, with generation of pyruvate and regeneration of ATP. Pyruvate production is in turn coupled to the lactate dehydrogenase-catalyzed reduction of pyruvate to form lactate, with concomitant conversion of NADH to NAD+. Loss of NADH is monitored by measuring absorbance at 340 nm (see e.g., Technikova-Dobrova et al., “Spectrophotometric determination of functional characteristics of protein kinases with coupled enzymatic assay,” FEBS Letters, vol. 292 (1991), pp. 69–72). Enzyme activity was measured in the presence of 200 mM HEPES (pH 7.5), 2 mM phosphoenolpyruvate, 0.3 mM NADH, 20 mM MgCl2, 100 μM ATP, 5 mM DTT, 5.1 or 25 mM poly (Glu,Tyr) 4:1 for P-FGF or P-LCK assays, respectively, and 15 units/mL each of pyruvate kinase and lactate dehydrogenase. Phosphorylated FGF receptor kinase was present at 100 nM and phosphorylated LCK kinase was present at 50 nM. Assays were performed under initial rate conditions at 37° C., and rates were corrected for any background rate measured in the absence of enzyme. Percent inhibition was calculated relative to control enzyme assayed in the presence of 2% (v/v) DMSO.

For assay [2], the system named is HCT 116 cell line. The assay is described as follows: Inhibition of Cell Growth (MTT tetrazolium salt assay). The settings on record: Homo sapiens, HCT 116, MTT; for IC50: 50% inhibition of growth, read-out: HCT 116 IC50; for IC90: read-out: HCT 116 IC90. The format is cell-based. The essentials:
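HCT 116 cells in McCoy's 5A were dosed 4 h after plating, in 0.5% (v/v) DMSO, then held 4–6 days at 37 °C, 5% CO2. MTT at 0.2 mg/mL final for 4 h; DMSO-solubilized formazan read at 540 nm. IC50 taken from the linear part of a semi-log plot versus DMSO-only controls.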

Assay [3] deals with T2, VEGF-R2 (Homo sapiens, UniProt P35968, DEL940-989/E990V).
T2 construct: VEGF-R2Δ50 contains residues 806–939 and 990–1171; made in house; host or cells: baculovirus/insect cells
T2 sequence (P35968 with tags, fused parts or gaps DEL940-989/E990V limits assumed): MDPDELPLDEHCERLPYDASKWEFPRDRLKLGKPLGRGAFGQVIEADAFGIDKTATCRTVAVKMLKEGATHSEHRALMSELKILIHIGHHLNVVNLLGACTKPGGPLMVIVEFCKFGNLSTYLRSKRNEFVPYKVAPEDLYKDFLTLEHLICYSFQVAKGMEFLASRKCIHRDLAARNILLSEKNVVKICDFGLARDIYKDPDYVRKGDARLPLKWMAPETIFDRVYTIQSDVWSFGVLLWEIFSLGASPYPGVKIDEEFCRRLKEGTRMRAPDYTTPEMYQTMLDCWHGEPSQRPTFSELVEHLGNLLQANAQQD
As to the kind of experiment: VEGF-R2 Assay (coupled spectrophotometric FLVK-P / ELISA). The assay is classed as biochemical. The note with it: read-out: VEGF % Inhib. at 1 μM. The text has this: VEGF-R2 Construct for Assay
This construct determines the ability of a test compound to inhibit tyrosine kinase activity. A construct (VEGF-R2Δ50) of the cytosolic domain of human vascular endothelial growth factor receptor 2 (VEGF-R2) lacking the 50 central residues of the 68 residues of the kinase insert domain was expressed in a baculovirus/insect cell system. Of the 1356 residues of full-length VEGF-R2, VEGF-R2Δ50 contains residues 806–939 and 990–1171, and also one point mutation (E990V) within the kinase insert domain relative to wild-type VEGF-R2. […] See Parast et al., Biochemistry, 37,16788–16801 (1998).
Coupled Spectrophotometric (FLVK-P) Assay
The production of ADP from ATP that accompanies phosphoryl transfer was coupled to oxidation of NADH using phosphoenolpyruvate (PEP) and a system having pyruvate kinase (PK) and lactic dehydrogenase (LDH). The oxidation of NADH was monitored by following the decrease of absorbance at 340 nm (e340=6.22 cm^1 mM^−1) using a Beckman DU 650 spectrophotometer. Assay conditions for phosphorylated VEGF-R2A50 (indicated as FLVK-P in the tables below) were the following: 1 mM PEP; 250 μM NADH; 50 units of LDH/mL; 20 units of PK/mL; 5 mM DTT; 5.1 mM poly(E4Y1); 1 mM ATP; and 25 mM MgCl2 in 200 mM Hepes, pH 7.5. Assay conditions for unphosphorylated VEGF-R2A50 (indicated as FLVK in the tables) were the following: 1 mM PEP; 250 μM NADH; 50 units of LDH/mL; 20 units of PK/mL; 5 mM DTT; 20 mM poly(E4Y1); 3 mM ATP; and 60 mM MgCl2 and 2 mM MnCl2 in 200 mM Hepes, pH 7.5. Assays were initiated with 5 to 40 nM of enzyme. Ki values were determined by measuring enzyme activity in the presence of varying concentrations of test compounds. The data were analyzed using Enzyme Kinetic and Kaleidagraph software.
Formation of phosphogastrin was monitored using biotinylated gastrin peptide (1–17) as substrate. Biotinylated phosphogastrin was immobilized using streptavidin coated 96-well microtiter plates followed by detection using anti-phosphotyrosine-antibody conjugated to horseradish peroxidase. The activity of horseradish peroxidase was monitored using 2,2′-azino-di-[3-ethylbenzathiazoline sulfonate(6)] diammonium salt (ABTS). Typical assay solutions contained: 2 μM biotinylated gastrin peptide; 5 mM DTT; 20 μM ATP; 26 mM MgCl2; and 2 mM MnCl2 in 200 mM Hepes, pH 7.5. The assay was initiated with 0.8 nM of phosphorylated VEGF-R2Δ50. Horseradish peroxidase activity was assayed using ABTS, 10 mM. The horseradish peroxidase reaction was quenched by addition of acid (H2SO4), followed by absorbance reading at 405 nm. Ki values were determined by measuring enzyme activity in the presence of varying concentrations of test compounds. The data were analyzed using Enzyme Kinetic and Kaleidagraph software.
(In an ELISA, binding on a coated surface is turned into a signal by an enzyme label.)

T1 sequence (P06239 223-509 P223M/C224D): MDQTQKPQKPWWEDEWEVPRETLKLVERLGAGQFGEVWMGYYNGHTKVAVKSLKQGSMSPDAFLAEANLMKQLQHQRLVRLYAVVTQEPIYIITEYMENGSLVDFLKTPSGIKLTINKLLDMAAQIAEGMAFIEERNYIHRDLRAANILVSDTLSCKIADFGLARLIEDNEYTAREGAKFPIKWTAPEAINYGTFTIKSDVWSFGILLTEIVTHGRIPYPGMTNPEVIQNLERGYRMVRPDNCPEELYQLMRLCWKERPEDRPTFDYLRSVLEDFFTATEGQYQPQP

Consider `Cc1c(O)cccc1-c1ccc2[nH]nc(-c3nc4ccccc4[nH]3)c2c1` [10′, 3-[3-(1H-Benzoimidazol-2-yl)-1H-indazol-5-yl]-2-methyl-phenol], for which the inhibition at 1 µM in assay [1] was found to be 21%. In addition, in assay [2], the IC50 (commonly the concentration at which inhibition is half-maximal) was 1.5 µM and the IC90 – broadly, the concentration at which the effect reaches the 90% level – was 3.8 µM.
For `Cc1c(O)cccc1-c1ccc2[nH]nc(/C=C/c3ccccc3)c2c1` [15′, 2-Methyl-3-[3-((E)-styryl)-1H-indazol-5-yl]-phenol] the same measures were 17%, 1.2 µM and 2.5 µM.
As to `Fc1ccccc1-c1ccc2[nH]nc(-c3nc4ccccc4[nH]3)c2c1` [Example 6, 3-(1H-Benzoimidazol-2-yl)-5-(2-fluorophenyl)-1H-Indazole], the inhibition at 1 µM in assay [3] was determined as 64%; in assay [1], 11%. In assay [2], the IC50 stood at 6 µM. Also, in assay [2], the IC90 came out at 21 µM.

The values above are taken from patent publication US7232912B2, “Indazole compounds, pharmaceutical compositions, and methods for mediating or inhibiting cell proliferation” (Agouron Pharmaceuticals, Inc., priority 2000, dated 2007).
